Results taken from patent publication US6541463B1, “Inhibitors of type 5 and type 3 17β-hydroxysteroid dehydrogenase and methods for their use” (Endorecherche, Inc., priority 1998, dated 2003).

Tests used:
[1] = biological target: T1, glucocorticoid receptor (Rattus norvegicus, UniProt P06536); assay: Glucocorticoid receptor assay: inhibition of [3H]-dexamethasone binding, liver cytosol; conditions: for inhibition at 1 µM / inhibition at 0.01 µM: Table 4′; for inhibition at 1 µM: read-out: % Inhibition Glucocorticold Receptor E^−6; for inhibition at 0.01 µM: read-out: % Inhibition Glucocorticold Receptor E^−8
T1 construct: from tissue; host or cells: liver cytosol of male Sprague-Dawley rats
T1 sequence (P06536 1-795): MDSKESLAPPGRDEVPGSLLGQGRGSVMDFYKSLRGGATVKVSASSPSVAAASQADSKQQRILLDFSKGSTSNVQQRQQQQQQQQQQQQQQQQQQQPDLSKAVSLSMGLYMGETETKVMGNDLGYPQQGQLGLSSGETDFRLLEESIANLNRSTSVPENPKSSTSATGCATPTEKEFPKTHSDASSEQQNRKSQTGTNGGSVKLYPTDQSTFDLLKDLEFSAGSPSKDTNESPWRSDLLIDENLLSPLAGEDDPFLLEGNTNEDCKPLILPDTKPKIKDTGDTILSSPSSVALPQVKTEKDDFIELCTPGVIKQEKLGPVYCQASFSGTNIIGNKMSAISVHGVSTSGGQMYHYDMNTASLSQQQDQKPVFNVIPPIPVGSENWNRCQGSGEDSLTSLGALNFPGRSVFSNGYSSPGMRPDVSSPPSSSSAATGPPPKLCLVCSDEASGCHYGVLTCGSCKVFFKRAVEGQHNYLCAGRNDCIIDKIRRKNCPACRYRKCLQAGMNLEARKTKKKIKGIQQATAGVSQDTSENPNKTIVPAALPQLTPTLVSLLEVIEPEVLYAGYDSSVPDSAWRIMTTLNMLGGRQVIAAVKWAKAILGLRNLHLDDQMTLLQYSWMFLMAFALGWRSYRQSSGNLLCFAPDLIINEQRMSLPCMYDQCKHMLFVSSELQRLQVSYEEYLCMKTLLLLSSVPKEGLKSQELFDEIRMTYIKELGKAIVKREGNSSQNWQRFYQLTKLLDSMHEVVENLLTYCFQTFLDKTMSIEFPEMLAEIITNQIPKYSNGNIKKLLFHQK
Protocol: The manner in which the percentage of inhibition is determined is described in “Other Tests; F-Glucocorticoid Receptor Assay”.
[6,7-^3H(N)]-Dexamethasone (39 Ci/mmol) was purchased from New England Nuclear (Lachine, Québec, Canada) while unlabeled dexametasone was obtained from Steraloids (Wilton, N.H.). All other chemicals were of analytical grade.
(§1) Stock solutions of the unlabeled steroids were kept at 4° C. in ethanol. The desired steroid solutions were then prepared by appropriate dilution in buffer B (10 mM Tris-HCl, 1.5 mM EDTA, 10 mM α-monothioglycerol, pH 7.4) containing 30% ethanol.
Male Sprague-Dawley rats weighing 200-300 g were obtained from Charles-River Inc. (St-Constant, Québec, Canada). The rats were killed by cervical dislocation and the liver were rapidly removed, dissected free from adhering tissue and frozen on dry-ice. Tissues were kept at −80° C. until use.
All procedures were performed at 4° C. Tissues were eminced and homogenized in 10 vol (w/v) of buffer A (25 mM Tris-HCl, 1.5 mM EDTA, 10 mM α-monothioglycerol, 10% glycerol, 10 mM sodium molybdate, pH 7.4) using a Polytron PT-10 homogenizer (Brinkmann Instruments, Canada) at a setting of 5 for two periods of 10 sec, with intervals of 10 sec for cooling. The homogenate was then centrifuged at 105,000×g for 90 min. The supernatant was used immediately for assay.
Glucocorticoid binding was measured using the dextran-coated charcoal adsorption technique. Incubations were performed at 0-4° C. for 16-18 h using 100 μl of cytosol, 100 μl of [^3H]-Dexamethasone (5 nM final) and 100 μl of unlabeled compounds at the indicated concentrations. Each concentration was done in triplicate. Assay was ended with 300 μl of DCC (2.5% Norit A and 0.25% Dextran T-70 in Buffer B). After 10 min of incubation, tubes were centrifuged at 2,000×g for 10 min. and decanted in vials with 6 ml of BCS liquid scintillation (New England Nuclear, Dupont). The radioactivity was measured in a Beckman counter at a counting efficiency of 35%.

[2] = test system: progesterone receptor; assay: Progesterone receptor assay: inhibition of [3H]R5020 binding, uterine cytosol; parameters: species or system rat
Protocol: The manner in which the percentage of inhibition is determined is described in “Other Tests; E-Progesterone Receptor Assay”. Lower numbers are desirable.
[17α-methyl-^3H]-promegestone (R5020) (84 Ci/mmol) and the corresponding unlabeled compound were purchased from New England Nuclear (Lachine, Québec, Canada). All other chemicals were of analytical grade.
as §1
Female Sprague-Dawley rats weighing 200-300 g were obtained from Charles-River Inc. (St-Constant, Québec, Canada). The rats were gonadectomized under general anesthesia (Isoflurane) and killed by cervical dislocation 24 hours later. The uteri are rapidly removed, dissected free from adhering tissue and frozen on dry-ice. Tissues were kept at −80° C. until use.
All procedures were performed at 4° C. Tissues were pulverized frozen in dry ice with a Thermovac pulverizer. The samples were then homogenized in 10 vol (w/v) of buffer A (25 mM Tris-HCl, 1.5 mM EDTA, 10 mM α-monothioglycerol, 10% glycerol, 10 mM sodium molybdate, pH 7.4) using a Polytron PT-10 homogenizer (Brinkmann Instruments, Canada) at a setting of 5 for two periods of 10 sec, with intervals of 10 sec for cooling. The homogenate was then centrifuged at 105,000×g for 90 min. The supernatant was used immediately for assay.
Progesterone binding was measured using the dextran-coated charcoal adsorption technique. […] Each concentration was done in triplicate. Assay was ended with 300 μl of DCC (1% Norit A and 0.1% Dextran T-70 in Buffer B). After 10 min of incubation, tubes were centrifuged at 2,000×g for 10 min. and decanted in vials with 6 ml of BCS liquid scintillation (New England Nuclear, Dupont). The radioactivity was measured in a Beckman counter at a counting efficiency of 35%.

## CCC[C@]1(F)CC2C3C=CC4=CC(=O)CC[C@]4(C)C3CC[C@]2(C)C1=O (stereo partly drawn) [EM-1183]
[1]; E^−6
  % Inhibition Glucocorticoid Receptor E^−6: 12%
[1]; E^−8
  % Inhibition Glucocorticoid Receptor E^−8: 0%
[2]; E^−6
  % Inhibition Progesterone Receptor E^−6: 45%
[2]; E^−8
  % Inhibition Progesterone Receptor E^−8: 9%

## CC1(C)CC[C@@]2(CCC3C4CCc5cc(F)ccc5C4CC[C@@]32C)OC1=O (stereo partly drawn) [EM-1157-CS]
[1]; E^−6
  inhibition at 1 µM: 0%
[1]; E^−8
  inhibition at 0.01 µM: 1%
[2]; Table 4′, E^−6
  % Inhibition Progesterone Receptor E^−6: 5%
[2]; Table 4′, E^−8
  % Inhibition Progesterone Receptor E^−8: 2%

## CC(=O)[C@@]1(OC(=O)CCCCF)CCC2C3C=C(C)C4=CC(=O)CC[C@]4(C)C3CC[C@@]21C (stereo partly drawn) [EM-1195-CS]
[1]; E^−6
  % Inhibition Glucocorticoid Receptor: 90%
[1]; E^−8
  % Inhibition Glucocorticoid Receptor: 3%
[2]; E^−6
  % Inhibition Progesterone Receptor: 70%
[2]; E^−8
  % Inhibition Progesterone Receptor: 0%

## CCC(=O)O[C@]1(C(C)=O)CCC2C3C=C(C)C4=CC(=O)C[C@H](C)[C@]4(C)C3CC[C@@]21C (stereo partly drawn) [CS-243]
[1]; E^−6
  % Inhibition Glucocorticoid Receptor: 29%
[1]; E^−8
  % Inhibition Glucocorticoid Receptor: 0%
[2]; E^−6
  % Inhibition Progesterone Receptor: 27%
[2]; E^−8
  % Inhibition Progesterone Receptor: 0%

## CC12CCC3c4ccc(F)cc4CCC3C1CCC21CCCC(=O)O1 (stereo not drawn) [EM-1170-CS]
[1]; E^−6
  inhibition at 1 µM: 3%
[1]; E^−8
  inhibition at 0.01 µM: 4%
[2]; Table 4′, E^−6
  % Inhibition Progesterone Receptor E^−6: 24%
[2]; Table 4′, E^−8
  % Inhibition Progesterone Receptor E^−8: 1%

## COc1ccc(CC(=O)O[C@]2(C(C)=O)CCC3C4C=C(C)C5=CC(=O)C=C[C@]5(C)C4CC[C@@]32C)cc1 (stereo partly drawn) [EM-1291]
[1]; E^−6
  % Inhibition Glucocorticoid Receptor: 69%
[1]; E^−8
  % Inhibition Glucocorticoid Receptor: 1%
[2]; E^−6
  % Inhibition Progesterone Receptor: 33%
[2]; E^−8
  % Inhibition Progesterone Receptor: 0%

## COCCOc1cc2c(cc1C(=O)OC)C1CC[C@@]3(C)C(CC[C@@]34CCC(C)(C)C(=O)O4)C1CC2 (stereo partly drawn) [EM-1402-CS, 2-Carbomethoxy-3-(2″-methoxyethyloxy)-1,3,5(10)-estratrien 17(R)-spiro-2′-(5′,5′-dimethyl-6′-oxo)tetrahydropyran]
[1]; E^−6
  inhibition at 1 µM: 7%
[1]; E^−8
  inhibition at 0.01 µM: 4%
[2]; Table 4′, E^−6
  % Inhibition Progesterone Receptor E^−6: 4%
[2]; Table 4′, E^−8
  % Inhibition Progesterone Receptor E^−8: 2%

## C[C@]12CCC(=O)C=C1C=C[C@@H]1[C@@H]2CC[C@]2(C)C(=O)C3(CC4CC4C3)C[C@@H]12 (stereo partly drawn) [EM-1299, 4,6-Androstadien-3,17-dione-16-spirobicyclo[3′.1′.0′]-hexane]
[1]; E^−6
  % Inhibition Glucocorticoid Receptor E^−6: 0%
[1]; E^−8
  % Inhibition Glucocorticoid Receptor E^−8: 0%
[2]; E^−6
  % Inhibition Progesterone Receptor E^−6: 0%
[2]; E^−8
  % Inhibition Progesterone Receptor E^−8: 0%

## COCCOc1cc2c(cc1Cl)C1CCC3(C)C(CCC34CCC(C)(C)C(=O)O4)C1CC2 (stereo not drawn) [EM-1371-CS]
[1]; E^−6
  inhibition at 1 µM: 0%
[1]; E^−8
  inhibition at 0.01 µM: 1%
[2]; Table 4′, E^−6
  % Inhibition Progesterone Receptor E^−6: 3%
[2]; Table 4′, E^−8
  % Inhibition Progesterone Receptor E^−8: 0%

## CC1(C)CCC2(CCC3C4CCc5ccccc5C4CCC32C)OC1=O (stereo not drawn) [CS-224]
[1]; E^−6
  inhibition at 1 µM: 5%
[1]; E^−8
  inhibition at 0.01 µM: 1%
[2]; Table 4′, E^−6
  % Inhibition Progesterone Receptor E^−6: 5%
[2]; Table 4′, E^−8
  % Inhibition Progesterone Receptor E^−8: 2%

## CC1(C)CC[C@@]2(CCC3C4CCc5cc(C(=O)O)ccc5C4CC[C@@]32C)OC1=O (stereo partly drawn) [EM-1401, 3-Carboxy-1,3,5(10)-estratrien-17(R)-spiro-2′-(5′,5′-dimethyl-6′-oxo)tetrahydropyran]
[1]; E^−6
  inhibition at 1 µM: 2%
[1]; E^−8
  inhibition at 0.01 µM: 4%
[2]; Table 4′, E^−6
  % Inhibition Progesterone Receptor E^−6: 0%
[2]; Table 4′, E^−8
  % Inhibition Progesterone Receptor E^−8: 0%

## CC(=O)O[C@]1(C(C)=O)CCC2C3C=C(C)C4=CC(=O)CC[C@]4(C)C3CC[C@@]21C (stereo partly drawn) [megestrol acetate, reference compound]
[1]; * E^−5
  % Inhibition Glucocorticoid Receptor: 98* %
[1]; * E^−7
  % Inhibition Glucocorticoid Receptor: 17* %
[1]; E^−6
  % Inhibition Glucocorticoid Receptor: 82%
[1]; E^−8
  % Inhibition Glucocorticoid Receptor: 0%
[2]; * E^−5
  % Inhibition Progesterone Receptor: 97* %
[2]; * E^−7
  % Inhibition Progesterone Receptor: 36* %
[2]; E^−6
  % Inhibition Progesterone Receptor: 77%
[2]; E^−8
  % Inhibition Progesterone Receptor: 3%

## CN(C)CCOc1ccc2c(c1)CCC1C2CCC2(C)C1CCC21CCC(C)(C)C(=O)O1 (stereo not drawn) [EM-1389-CS]
[1]; E^−6
  inhibition at 1 µM: 3%
[1]; E^−8
  inhibition at 0.01 µM: 0%
[2]; Table 4′, E^−6
  % Inhibition Progesterone Receptor E^−6: 0%
[2]; Table 4′, E^−8
  % Inhibition Progesterone Receptor E^−8: 3%

## CCCC(=O)OC1(C(C)=O)CCC2C3C=C(C)C4=CC(=O)CC(C)C4(C)C3CCC21C (stereo not drawn) [CS-245]
[1]; E^−6
  % Inhibition Glucocorticoid Receptor: 43%
[1]; E^−8
  % Inhibition Glucocorticoid Receptor: 0%
[2]; E^−6
  % Inhibition Progesterone Receptor: 26%
[2]; E^−8
  % Inhibition Progesterone Receptor: 0%

## CCCC(=O)O[C@]1(C)C(=O)CCC2C3C=C(C)C4=CC(=O)CC[C@]4(C)C3CC[C@@]21C (stereo partly drawn) [EM-1078]
[1]; E^−6
  % Inhibition Glucocorticoid Receptor E^−6: 94%
[1]; E^−8
  % Inhibition Glucocorticoid Receptor E^−8: 20%
[2]; E^−6
  % Inhibition Progesterone Receptor E^−6: 53%
[2]; E^−8
  % Inhibition Progesterone Receptor E^−8: 0%

## COc1ccc2c(c1)CCC1C2CCC2(C)C1CCC21CCC(C)(C)C(=O)O1 (stereo not drawn) [EM-1370]
[1]; E^−6
  inhibition at 1 µM: 0%
[1]; E^−8
  inhibition at 0.01 µM: 3%
[2]; Table 4′, E^−6
  % Inhibition Progesterone Receptor E^−6: 0%
[2]; Table 4′, E^−8
  % Inhibition Progesterone Receptor E^−8: 0%

## CC(C)C[C@@H]1CC2C3C=CC4=CC(=O)CC[C@]4(C)C3CC[C@]2(C)C1=O (stereo partly drawn) [EM-1273-CS]
[1]; E^−6
  % Inhibition Glucocorticoid Receptor E^−6: 1%
[1]; E^−8
  % Inhibition Glucocorticoid Receptor E^−8: 0%
[2]; E^−6
  % Inhibition Progesterone Receptor E^−6: 0%
[2]; E^−8
  % Inhibition Progesterone Receptor E^−8: 0%
